Source: the supplement of paper PMC10307832

What was measured:
Assay in all cases: relative viability (nuclei count vs DMSO), 5 days (fraction); higher = more cells survive
DM3189 = compound: C1CN(CCN1)C2=CC=C(C=C2)C3=CN4C(=C(C=N4)C5=CC=NC6=CC=CC=C56)N=C3 [DM3189]
Method in brief: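 Vehicle-anchored 1536-well plates of lung cancer cell lines, held overnight at 37 °C, were pinned with five library-drug doses (not always all listed) spaced by √10. No medium change followed over the next 5 days, after which the cells were fixed, permeabilised and Hoechst-stained together and imaged at 4×. Nuclei were counted with MetaXpress, and viability is treated-well nuclei over vehicle-well nuclei, taken as a median across plates. Plates passed with control CV below 25% and at least one doubling.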

DM3189 + Bortezomib = compound: C1CN(CCN1)C2=CC=C(C=C2)C3=CN4C(=C(C=N4)C5=CC=NC6=CC=CC=C56)N=C3 [DM3189] + CC(C)C[C@H](NC(=O)[C@H](Cc1ccccc1)NC(=O)c1cnccn1)B(O)O [Bortezomib] (partner 0.002 µM)
Method in brief: (§1)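 Nuclei were stained with Hoechst during a one-step fixation (final 0.05% Triton X-100, 1% formaldehyde, 1 ug/ml Hoechst) carried out 5 days after dosing, then counted on 4× images. The cells, lung cancer lines in 1536-well plates, had been dosed by pin tool the day after seeding with one drug alone or a fixed anchor-drug dose plus five library-drug doses (not always all listed) in √10 steps. Relative viability is the nuclei count in treated wells divided by that in vehicle wells, and each value is the median of duplicate plates.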

DM3189 + Navitoclax = compound: C1CN(CCN1)C2=CC=C(C=C2)C3=CN4C(=C(C=N4)C5=CC=NC6=CC=CC=C56)N=C3 [DM3189] + CC1(C)CCC(c2ccc(Cl)cc2)=C(CN2CCN(c3ccc(C(=O)NS(=O)(=O)c4ccc(N[C@H](CCN5CCOCC5)CSc5ccccc5)c(S(=O)(=O)C(F)(F)F)c4)cc3)CC2)C1 [Navitoclax] (partner 0.5 µM)
Method in brief: as §1

DM3189 + Foretinib = compound: C1CN(CCN1)C2=CC=C(C=C2)C3=CN4C(=C(C=N4)C5=CC=NC6=CC=CC=C56)N=C3 [DM3189] + COc1cc2c(Oc3ccc(NC(=O)C4(C(=O)Nc5ccc(F)cc5)CC4)cc3F)ccnc2cc1OCCCN1CCOCC1 [Foretinib] (partner 0.25 µM)
Method in brief: as §1

DM3189 + Lapatinib = compound: C1CN(CCN1)C2=CC=C(C=C2)C3=CN4C(=C(C=N4)C5=CC=NC6=CC=CC=C56)N=C3 [DM3189] + CS(=O)(=O)CCNCc1ccc(-c2ccc3ncnc(Nc4ccc(OCc5cccc(F)c5)c(Cl)c4)c3c2)o1 [Lapatinib] (partner 2 µM)
Method in brief: as §1

DM3189 + Pictilisib = compound: C1CN(CCN1)C2=CC=C(C=C2)C3=CN4C(=C(C=N4)C5=CC=NC6=CC=CC=C56)N=C3 [DM3189] + CS(=O)(=O)N1CCN(Cc2cc3nc(-c4cccc5[nH]ncc45)nc(N4CCOCC4)c3s2)CC1 [Pictilisib] (partner 1 µM)
Method in brief: as §1

DM3189 + Crizotinib = compound: C1CN(CCN1)C2=CC=C(C=C2)C3=CN4C(=C(C=N4)C5=CC=NC6=CC=CC=C56)N=C3 [DM3189] + C[C@@H](Oc1cc(-c2cnn(C3CCNCC3)c2)cnc1N)c1c(Cl)ccc(F)c1Cl [Crizotinib] (partner 1 µM)
Method in brief: as §1

DM3189 + Linsitinib = compound: C1CN(CCN1)C2=CC=C(C=C2)C3=CN4C(=C(C=N4)C5=CC=NC6=CC=CC=C56)N=C3 [DM3189] + C[C@]1(O)C[C@@H](c2nc(-c3ccc4ccc(-c5ccccc5)nc4c3)c3c(N)nccn32)C1 [Linsitinib] (partner 1 µM)
Method in brief: as §1

DM3189 + Alpelisib = compound: C1CN(CCN1)C2=CC=C(C=C2)C3=CN4C(=C(C=N4)C5=CC=NC6=CC=CC=C56)N=C3 [DM3189] + Cc1nc(NC(=O)N2CCC[C@H]2C(N)=O)sc1-c1ccnc(C(C)(C)C(F)(F)F)c1 [Alpelisib] (partner 2 µM)
Method in brief: as §1

DM3189 + Olaparib = compound: C1CN(CCN1)C2=CC=C(C=C2)C3=CN4C(=C(C=N4)C5=CC=NC6=CC=CC=C56)N=C3 [DM3189] + O=C(c1cc(Cc2n[nH]c(=O)c3ccccc23)ccc1F)N1CCN(C(=O)C2CC2)CC1 [Olaparib] (partner 8 µM)
Method in brief: as §1

NCI-H1299
relative viability (DM3189; 0.08 µM): 0.967
relative viability (DM3189; 0.253 µM): 0.987
relative viability (DM3189; 0.8 µM): 0.976
relative viability (DM3189; 2.53 µM): 1.04
relative viability (DM3189 + Bortezomib; first compound 0.08 µM): 1.06
relative viability (DM3189 + Bortezomib; first compound 0.253 µM): 1.01
relative viability (DM3189 + Bortezomib; first compound 0.8 µM): 1.01
relative viability (DM3189 + Bortezomib; first compound 2.53 µM): 1.01
relative viability (DM3189 + Navitoclax; first compound 0.08 µM): 1.03
relative viability (DM3189 + Navitoclax; first compound 0.253 µM): 0.985
relative viability (DM3189 + Navitoclax; first compound 0.8 µM): 1.02
relative viability (DM3189 + Navitoclax; first compound 2.53 µM): 1.03
relative viability (DM3189 + Foretinib; first compound 0.08 µM): 1.09
relative viability (DM3189 + Foretinib; first compound 0.253 µM): 0.996
relative viability (DM3189 + Foretinib; first compound 0.8 µM): 1.06
relative viability (DM3189 + Foretinib; first compound 2.53 µM): 1.08
relative viability (DM3189 + Lapatinib; first compound 0.08 µM): 1.01
relative viability (DM3189 + Lapatinib; first compound 0.253 µM): 0.926
relative viability (DM3189 + Lapatinib; first compound 0.8 µM): 0.899
relative viability (DM3189 + Lapatinib; first compound 2.53 µM): 0.94
relative viability (DM3189 + Pictilisib; first compound 0.08 µM): 0.911
relative viability (DM3189 + Pictilisib; first compound 0.253 µM): 0.776
relative viability (DM3189 + Pictilisib; first compound 0.8 µM): 0.59
relative viability (DM3189 + Pictilisib; first compound 2.53 µM): 0.495
relative viability (DM3189 + Crizotinib; first compound 0.08 µM): 0.99
relative viability (DM3189 + Crizotinib; first compound 0.253 µM): 0.914
relative viability (DM3189 + Crizotinib; first compound 0.8 µM): 0.924
relative viability (DM3189 + Crizotinib; first compound 2.53 µM): 0.983
relative viability (DM3189 + Linsitinib; first compound 0.08 µM): 0.998
relative viability (DM3189 + Linsitinib; first compound 0.253 µM): 1.01
relative viability (DM3189 + Linsitinib; first compound 0.8 µM): 0.958
relative viability (DM3189 + Linsitinib; first compound 2.53 µM): 1.06
relative viability (DM3189 + Alpelisib; first compound 0.08 µM): 1.09
relative viability (DM3189 + Alpelisib; first compound 0.253 µM): 1.07
relative viability (DM3189 + Alpelisib; first compound 0.8 µM): 0.968
relative viability (DM3189 + Alpelisib; first compound 2.53 µM): 1.15
relative viability (DM3189 + Olaparib; first compound 0.08 µM): 0.963
relative viability (DM3189 + Olaparib; first compound 0.253 µM): 0.922
relative viability (DM3189 + Olaparib; first compound 0.8 µM): 0.753
relative viability (DM3189 + Olaparib; first compound 2.53 µM): 1.05
